{
  "source": "patent US9540649B2",
  "about": "“Method for opening tight junctions” (The Provost, Fellows and Scholars of the College of the …, priority 2007, dated 2017)",
  "key": {"BRB": {"tested_on": "BRB", "experiment": "BRB permeability to Hoechst (562 Da), retinal cryosections and flatmounts", "format": "in vivo, C57/Bl6 mice", "method": "In order to determine the permeability of brain and retinal microvessels to a molecule of 562 Daltons, mice were perfused through the left ventricle with 500 μl/g body weight of PBS containing 100 μg/ml Hoechst stain H33342 (Sigma Aldrich, Ireland) and 1 mg/ml FITC-Dextran-4 (FD-4) 24, 48, 72 hours and 1 week post-hydrodynamic delivery of claudin-5 siRNA. Following perfusion, the whole brain was dissected and placed in 4% PFA pH 7.4 overnight at 4° C. and subsequently washed 4×15 mins with PBS. Brains were then embedded in 4% agarose and 50 μm sections were cut using a Vibratome®. Whole eyes were removed and fixed with 4% PFA, and following washing with PBS and cryoprotection using a sucrose gradient, 12 μm cryosections were cut using a cryostat. Following analysis of retinal cryosections with an Olympus FluoView™ FV1000 Confocal microscope, images were oriented correctly using Adobe® Photoshop®."}, "BBB": {"tested_on": "BBB", "experiment": "MRI assessment of BBB integrity with contrasting agent Gd-DTPA (742 Da)", "format": "in vivo, C57/Bl6 mice", "method": "Following injection of siRNA and using appropriate controls, BBB integrity was assessed in vivo via MRI, using a dedicated small rodent Bruker BioSpec 70/30 (i.e. 7 T, 30 cm bore) with an actively shielded USR Magnet. Mice were anaesthetised with isofluorane, and physiologically monitored (ECG, respiration and temperature) and placed on an MRI-compatible support cradle, which has a built-in system for maintaining the animal's body temperature at 37° C. The cradle was then positioned within the MRI scanner. Accurate positioning is ensured by acquiring an initial rapid pilot image, which is then used to ensure the correct geometry is scanned in all subsequent MRI experiments. Upon insertion into the MRI scanner, high resolution anatomical images of the brain were acquired (100 μm in-plane and 500 μm through-plane spatial resolution). BBB integrity was then visualised in high resolution T1 weighted MR images before and after injection of a 0.1 mM/L/kg bolus of Gd-DTPA (Gadolinium diethylene-triamine pentaacetic acid), administered via the tail vein.\nGd-DTPA was injected in the tail vein to assess whether Gd-TPA would permeate across the BBB. Following injection of siRNA and using appropriate controls, BBB integrity to a molecule of 742 Daltons (Gd-DTPA) was assessed via MRI, using a dedicated small rodent Bruker BioSpec 70/30 (i.e. 7 T, 30 cm bore) with an actively shielded USR Magnet. Mice were anaesthetised with isofluorane, and physiologically monitored (ECG, respiration and temperature) and placed on an MRI-compatible support cradle, which has a built-in system for maintaining the animal's body temperature at 37° C. The cradle was then positioned within the MRI scanner. Accurate positioning is ensured by acquiring an initial rapid pilot image, which is then used to ensure the correct geometry is scanned in all subsequent MRI experiments. Upon insertion into the MRI scanner, high resolution anatomical images of the brain were acquired (100 μm in-plane and 500 μm through-plane spatial resolution). BBB integrity was then visualised in high resolution T1 weighted MR images before and after injection of a 0.1 mM/L/kg bolus of Gd-DTPA (Gadolinium diethylene-triamine pentaacetic acid), administered via the tail vein. Following injection of Gd-DTPA, repeated 3 minute T1-weighted scans were performed over a period of 30 minutes, and images shown are representative of the final scans of this 30 minute period. Statistical analysis of all densitometric results of combined regions of the Cerebellum, Hippocampus and Cortex was performed using ANOVA, with significance represented by a P value of ≦0.05, and results are presented both graphically and in a quantitative image depicting the rate of Gd-DTPA deposition within the brain. All MRI scans were performed on 2 mice from each experimental treatment."}},
  "note": "Entries after “also recorded” stand apart in the source; their conditions may differ.",
  "data": [
    {"substance": "claudin-5 siRNA: siRNA, sense CGUUGGAAAUUCUGGGUCUUU (SEQ ID NO: 1), antisense AGACCCAGAAUUUCCAACGUU (SEQ ID NO: 2) (listed as RNA, chemistry not given here)", "values": [
      {"measurement": "Hoechst staining in retinal flatmounts", "setting": "BRB; 24 and 48 hours post injection", "value": "stain extravascular nuclei"},
      {"measurement": "extravasation of Hoechst in 12 μm retinal cryosections", "setting": "BRB; 24 hours post delivery", "value": "Inner Nuclear Layer (INL) appearing stained"},
      {"measurement": "extravasation of Hoechst in 12 μm retinal cryosections", "setting": "BRB; 48 hours post delivery", "value": "distinct Outer Nuclear Layer (ONL) staining"},
      {"measurement": "extravasation of Hoechst H33342 from retinal microvessels, retinal cryosections", "setting": "BRB; up to 48 hour post-delivery", "value": "staining the Inner Nuclear Layer (INL) and Outer Nuclear Layer (ONL) of the retina"},
      {"measurement": "densitometric analysis of MRI contrasting, Cerebellum, Hippocampus and Cortex combined", "setting": "BBB; 24 hours and 48 hours post injection, vs control groups", "value": "significant increase in contrasting"},
      {"measurement": "Gd-DTPA (742 Da) passage across BBB, MRI", "setting": "BBB; 24 hours post-injection", "value": "Gd-DTPA crossed the BBB and was deposited within the brain"},
      {"measurement": "Gd-DTPA (742 Da) passage across BBB, MRI", "setting": "BBB; 48 hours post-injection", "value": "Gd-DTPA crossed the BBB and was deposited within the brain; also recorded: Gd-DTPA crossed the BBB and was deposited in the parenchymal tissue of the brain; also recorded: widespread and intense contrasting throughout the brain; also recorded: extremely large quantities of Gd-DTPA were deposited in the brain"},
      {"measurement": "Gd-DTPA (742 Da) passage across BBB, MRI", "setting": "BBB; 48 hours post-injection, listed as siRNA targeting claudin-5", "value": "enhanced contrasting within the brain"},
      {"measurement": "Gd-DTPA (742 Da) passage across BBB, MRI", "setting": "BBB; 72 hours or 1 week post-injection", "value": "intact barrier with no deposition of Gd-DTPA"},
      {"measurement": "Gd-DTPA (742 Da) passage across BBB, MRI", "setting": "BBB; 72 hours or 1 week post-injection, listed as siRNA targeting claudin-5", "value": "nor was it present; also recorded: no deposition of Gd-DTPA"}
    ]}
  ]
}
